Test [1] has as its target T1, P2X purinoceptor 7 (Homo sapiens, UniProt Q99572).
T1 sequence (Q99572 whole entry): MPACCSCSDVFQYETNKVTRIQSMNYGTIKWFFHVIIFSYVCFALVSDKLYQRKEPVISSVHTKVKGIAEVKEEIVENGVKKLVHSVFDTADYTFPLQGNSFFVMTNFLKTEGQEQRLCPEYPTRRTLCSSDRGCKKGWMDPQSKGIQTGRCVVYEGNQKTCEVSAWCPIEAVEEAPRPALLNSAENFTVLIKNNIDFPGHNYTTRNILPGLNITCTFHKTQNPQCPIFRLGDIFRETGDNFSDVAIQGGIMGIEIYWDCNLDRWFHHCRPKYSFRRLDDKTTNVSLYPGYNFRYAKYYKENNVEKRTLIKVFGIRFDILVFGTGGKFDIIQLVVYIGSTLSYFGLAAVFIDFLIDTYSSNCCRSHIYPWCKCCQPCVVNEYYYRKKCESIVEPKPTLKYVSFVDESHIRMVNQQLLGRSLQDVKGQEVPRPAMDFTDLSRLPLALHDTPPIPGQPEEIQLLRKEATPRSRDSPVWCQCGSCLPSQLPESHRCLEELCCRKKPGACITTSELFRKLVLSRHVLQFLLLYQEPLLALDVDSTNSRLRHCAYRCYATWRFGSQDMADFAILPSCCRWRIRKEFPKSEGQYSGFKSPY
Nature of the test: Antagonist activity at human P2X7 receptor expressed in HEK293 by fluorescence plate reader analysis. It counts as cell-based.

The target of test [2] is T1, P2X purinoceptor 7. Nature of the test: Antagonist activity at human P2X7 receptor.
The target in test [3] is T1, P2X purinoceptor 7. Nature of the test: Inhibition of human P2X7 receptor transfected in HEK293 cells by calcium influx assay. Format: cell-based.
The target of test [4] is T2, P2X purinoceptor 7 (Mus musculus, UniProt Q9Z1M0).
T2 sequence (Q9Z1M0 whole entry): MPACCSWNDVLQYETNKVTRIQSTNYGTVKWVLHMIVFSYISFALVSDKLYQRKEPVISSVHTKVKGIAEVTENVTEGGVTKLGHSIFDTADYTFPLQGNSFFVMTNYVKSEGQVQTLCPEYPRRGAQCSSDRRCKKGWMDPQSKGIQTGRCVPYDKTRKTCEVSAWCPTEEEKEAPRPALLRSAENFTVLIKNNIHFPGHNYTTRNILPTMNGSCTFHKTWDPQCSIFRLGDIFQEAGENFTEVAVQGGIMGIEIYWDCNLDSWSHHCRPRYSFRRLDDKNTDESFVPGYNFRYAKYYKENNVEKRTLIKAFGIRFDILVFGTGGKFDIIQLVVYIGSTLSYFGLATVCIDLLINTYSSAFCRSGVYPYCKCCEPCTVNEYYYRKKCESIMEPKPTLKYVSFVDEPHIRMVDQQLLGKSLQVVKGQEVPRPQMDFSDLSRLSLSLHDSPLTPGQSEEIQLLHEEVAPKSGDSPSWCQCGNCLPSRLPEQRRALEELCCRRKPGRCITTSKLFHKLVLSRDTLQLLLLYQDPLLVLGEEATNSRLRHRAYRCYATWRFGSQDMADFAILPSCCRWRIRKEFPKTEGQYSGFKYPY
Nature of the test: Antagonist activity at mouse P2X7 receptor by calcium flux assay.

Test [5] concerns the target T1, P2X purinoceptor 7. Nature of the test: Antagonist activity at human P2X7 receptor by calcium flux assay. (In general: Calcium assays in cells follow changes in intracellular calcium, usually with a dye or a luminescent sensor.)
For test [6], the target named is T3, P2X purinoceptor 7 (Rattus norvegicus, UniProt Q64663).
T3 sequence (Q64663 whole entry): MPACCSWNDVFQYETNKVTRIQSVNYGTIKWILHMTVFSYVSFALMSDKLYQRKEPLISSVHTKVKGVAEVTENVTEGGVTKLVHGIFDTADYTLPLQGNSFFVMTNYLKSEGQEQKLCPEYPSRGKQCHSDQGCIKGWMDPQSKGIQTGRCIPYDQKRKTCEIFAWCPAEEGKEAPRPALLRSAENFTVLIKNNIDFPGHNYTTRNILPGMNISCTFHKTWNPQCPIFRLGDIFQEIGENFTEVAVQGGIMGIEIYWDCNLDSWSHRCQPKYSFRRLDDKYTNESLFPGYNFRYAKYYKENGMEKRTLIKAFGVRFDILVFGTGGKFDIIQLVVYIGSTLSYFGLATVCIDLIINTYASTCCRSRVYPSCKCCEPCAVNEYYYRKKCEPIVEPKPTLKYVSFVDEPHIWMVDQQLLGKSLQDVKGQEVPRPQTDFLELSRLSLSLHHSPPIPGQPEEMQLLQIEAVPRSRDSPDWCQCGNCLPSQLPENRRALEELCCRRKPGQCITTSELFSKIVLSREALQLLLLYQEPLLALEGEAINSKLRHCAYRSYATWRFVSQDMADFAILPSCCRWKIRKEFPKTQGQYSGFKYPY
Nature of the test: Antagonist activity at rat P2X7 receptor by calcium flux assay.

The target of test [7] is T1, P2X purinoceptor 7. Nature of the test: Antagonist activity at human P2X7 receptor expressed in 1321N1 cells by FLIPR assay. It counts as cell-based.
Test [8] has as its target T4, P2X purinoceptor 7 (Mus musculus) (UniProt Q9Z1M0).
T4 sequence (whole entry): T2 sequence (Q9Z1M0 whole entry)
Nature of the test: Antagonist activity at P2X7 receptor in mouse Peritoneal macrophage cells assessed as ATP induced dye uptake at 10 uM relative to control. It counts as cell-based.

Broadly, the IC50 is the point on the concentration scale where inhibition reaches its midpoint. On to `COCCn1cc(C(=O)NCc2ccc3c(c2)OCO3)c2c(Cl)cccc21`, for which the half-maximal inhibitory concentration (IC50) against P2X purinoceptor 7 [1] is more than 1000 nM.

In turn, `Cc1cc(Nc2nc(=O)c3[nH]cnc3n2Cc2ccccc2)c(C)cc1Cl` gave an IC50 at P2X purinoceptor 7 [2] of less than 10 nM.

As for `O=C(NCc1ccc(Cl)cc1Cl)[C@@]1(F)CC[C@](O)(CN2CC(O)C2)c2ncccc21`, at P2X purinoceptor 7 [3], the IC50 was less than 50 nM.

In the case of `O=c1onc(Cc2c(F)cccc2Cl)n1CC1CCC(F)(F)CC1`, the IC50 on P2X purinoceptor 7 [4], on P2X purinoceptor 7 [5] and on P2X purinoceptor 7 [6] was less than 200 nM in each case.

`COc1ccc(Nc2nc(=O)c3onc(C)c3n2Cc2ccc(F)c(F)c2)c(C)c1` displayed an IC50 at P2X purinoceptor 7 [2] of less than 10 nM.

Take `O=c1onc(Cc2ccccc2Cl)n1CC1CCC(F)(F)CC1`: the results for the IC50 on P2X purinoceptor 7 [4], on P2X purinoceptor 7 [5] and at P2X purinoceptor 7 [6] were 200 nM, less than 200 nM and less than 200 nM, respectively.

Consider `Cc1nc2cc(C)c(Nc3nc(=O)cc4n3C(c3ccc(F)cc3)CC4)cc2s1` (stereo not given), for which the IC50 on P2X purinoceptor 7 [2] is less than 10 nM.

`O=C1CO[C@]2(CC[C@@](F)(C(=O)NCc3ccc(Cl)cc3Cl)c3cccnc32)CN1`: the IC50 on P2X purinoceptor 7 [3] was less than 50 nM.

At P2X purinoceptor 7 [2], `COc1ccc(Nc2nc(=O)cc3n2C(c2ccccc2)CN3C)c(C)c1` (stereo not given) gave an IC50 of less than 10 nM.

Consider `Cc1ccc(-c2ncco2)cc1Nc1nc(=O)cnn1Cc1cc(F)c(F)c(F)c1`, for which the IC50 at P2X purinoceptor 7 [7] turned out to be 2.4 nM.

On P2X purinoceptor 7 [2], `Cc1ccc(Cn2c(Nc3cc4sc(C)nc4cc3C)nc(=O)c3[nH]cnc32)cc1` registered an IC50 of 500 nM.

`O=c1onc(Cc2c(F)cccc2Cl)n1CC1CC2CCC1C2` (stereo not given): the IC50 was 200 nM on P2X purinoceptor 7 [4], less than 200 nM at P2X purinoceptor 7 [5] and less than 200 nM on P2X purinoceptor 7 [6].

Take `Cc1c(Cl)cccc1Nc1nc(=O)cc2n1C(c1ccccc1)CC2` (stereo not given): on P2X purinoceptor 7 [2], the IC50 is less than 10 nM.

Molecule `Cc1c(F)cc(CO)cc1Nc1nc(=O)cnn1Cc1cc(F)c(F)c(F)c1` gave an IC50 on P2X purinoceptor 7 [7] of 3 nM.

As to `Cc1noc(C)c1Cc1noc(=O)n1CC1CCC(F)(F)CC1`, the IC50 at P2X purinoceptor 7 [4] is 1000 nM; at P2X purinoceptor 7 [5], less than 200 nM; at P2X purinoceptor 7 [6] it was 200 nM.

For the molecule `COc1ccc(Nc2nc(=O)c3[nH]cnc3n2Cc2ccc(F)c(F)c2)c(C)c1`, at P2X purinoceptor 7 [2], the IC50 is less than 10 nM.

Regarding `O=C(NCc1cccc(C(F)(F)F)c1Cl)C1(F)CCC(O)c2ncccc21` (stereo not given), the IC50 on P2X purinoceptor 7 [3] is less than 50 nM.

On to `O=C1CCC(C(=O)NCc2cccc(C(F)(F)F)c2Cl)c2cccnc21` (stereo not given), for which, on P2X purinoceptor 7 [3], the IC50 is less than 50 nM.

Consider `Cc1ccc(CO)cc1Nc1nc(=O)ccn1Cc1cc(F)c(F)c(F)c1`, for which the IC50 on P2X purinoceptor 7 [7] was found to be 4 nM.

Take `O=c1snc(Cc2c(F)cccc2Cl)n1CC1CCC(F)(F)CC1`: the IC50 at P2X purinoceptor 7 [4], on P2X purinoceptor 7 [5] and at P2X purinoceptor 7 [6] was less than 200 nM each time.

In turn, `COCCn1cc(C(=O)NCc2ccc(C(F)(F)F)cc2)c2c(Cl)cccc21` yielded an IC50 against P2X purinoceptor 7 [1] of more than 1000 nM.

On P2X purinoceptor 7 [2], `CN1C(=O)N=C(NCc2ccccc2)N2C1=NCC2c1cc(F)c(F)c(F)c1` (stereo not given) came in with an IC50 of less than 10 nM.

For the molecule `COc1nc(C)c(Nc2nc(=O)c3[nH]cnc3n2Cc2ccc(F)c(F)c2)cc1C`, on P2X purinoceptor 7 [2], the IC50 is less than 10 nM.

Turning to `O=C(NCc1ccc(F)cc1Cl)[C@]1(F)CC[C@H](OCCO)c2ncccc21`, the IC50 at P2X purinoceptor 7 [3] is less than 50 nM.

Consider `O=c1onc(CN2CCOc3ccccc32)n1CC1CCC(F)(F)CC1`, for which the IC50 at P2X purinoceptor 7 [4], at P2X purinoceptor 7 [5] and at P2X purinoceptor 7 [6] was less than 200 nM throughout.

`Cn1nccc1Nc1nc(=O)c(F)cn1Cc1cc(F)c(F)c(F)c1` showed an IC50 against P2X purinoceptor 7 [7] of more than 100 nM.

The inhibition is how much of the control response was suppressed. For `CC1=C(C(c2ccc(Br)cc2)n2cc(COCc3ccco3)nn2)C(=O)c2ccccc2C1=O` (stereo not given), the inhibition in test [8] is less than 60%.

For `C[C@@H]1CCC[C@](O)(CNC(=O)c2cn(CC3CCCO3)c3cccc(Cl)c23)C1` (stereo not given in full), the IC50 on P2X purinoceptor 7 [1] is 10 nM.

Source of the values: ChEMBL document CHEMBL5360537, “From lead to clinic: A review of the structural design of P2X7R antagonists” (Eur J Med Chem, 2023).
